# According to patent publication US4980377A, “1-(aminophenyl)-2-aminopropanone derivatives” (Laboratoire L. Lafon, priority 1984, dated 1990):
# Entries after “also recorded” stand apart in the source; their conditions may differ. Counter-ions that a name gives are not always drawn.
# Tests used:
# mice [1] = test: Overall behavior and reactivities in mice; assay type: in vivo, mouse; conditions: dose not stated
# Procedure: (§1) In the neuropsychopharmacological study which follows, a solution of CRL 41 153 in distilled water (pH 1.5) was administered intraperitoneally in a volume of 20 ml/kg to male mice and 5 ml/kg to male rats.
# (§2) Groups of three animals are observed before and then 0.25 hour, 0.50 hour, 1 hour, 2 hours, 3 hours and 24 hours after the administration of CRL 41 153.
# rats [2] = test: Overall behavior and reactivities in rats; assay type: in vivo, rat; conditions: dose not stated
# Procedure: as §1, §2
# mice [3] = test: Interaction with apomorphine in mice; assay type: in vivo, mouse; conditions: i.p.
# Procedure: Groups of 6 mice receive CRL 41 153 0.5 hour before the subcutaneous injection of 1 or 16 mg/kg of apomorphine.
# rats [4] = test: Interaction with apomorphine in rats; assay type: in vivo, rat; conditions: i.p.
# Procedure: CRL 41 153 is administered to groups of 6 rats 0.5 hour before the subcutaneous injection of 0.5 mg/kg of apomorphine.
# rats [5] = test: Interaction with amphetamine; assay type: in vivo, rat; conditions: i.p.
# Procedure: Amphetamine (2 mg/kg) is injected intraperitoneally into groups of 6 rats 30 minutes after the administration of CRL 41 153. […] 4 mg/kg and 16 mg/kg, CRL 41 153 potentiates the intensity and duration of the stereotypies induced by amphetamine.
# mice [6] = test: Interaction with reserpine; assay type: in vivo, mouse; conditions: i.p.
# Procedure: Four hours after the intraperitoneal injection of 2.5 mg/kg of reserpine, groups of 6 mice receive CRL 41 153.
# mice [7] = test: Interaction with oxotremorine; assay type: in vivo, mouse; conditions: i.p.
# Procedure: CRL 41 153 is administered to groups of 6 mice 0.5 hour before the intraperitoneal injection of 0.5 mg/kg of oxotremorine.
# mice [8] = test: Four plate test, traction and electric shock; assay type: in vivo, mouse; conditions: i.p.
# Procedure: The test is performed on groups of 10 mice 30 minutes after the administration of CRL 41 153.
# mice [9] = test: Spontaneous motility; assay type: in vivo, mouse; conditions: i.p.
# Procedure: 0.5 hour after they have received CRL 41 153, the mice (6 per dose, 12 control animals) are placed in an actimeter, where their motility is recorded for 30 minutes.
# mice [10] = test: Motility reduced by habituation to the enclosure; assay type: in vivo, mouse; conditions: i.p.
# Procedure: After they have stayed In the actimeters for 18 hours, (he mice (6 per dose, 12 control animals) receive CRL 41 153. They are immediately returned to their respective enclosures and, half an hour later, their motility is recorded for 30 minutes.
# mice [11] = test: Motility reduced by hypoxic aggression; assay type: in vivo, mouse; conditions: i.p.
# Procedure: Half an hour after they have received CRL 41 153, the mice (10 per dose, 20 control animals) are subjected to acute hypobaric anoxia [pressure reduction of 600 mm Hg (i.e. about 8×10^4 Pa) in 90 seconds; release of vacuum in 45 seconds] and are then placed in an actimeter, where their motility is recorded for 10 minutes.
# mice [12] = test: Interaction with barbital; assay type: in vivo, mouse; conditions: i.p., barbital 220 mg/kg
# Procedure: Half an hour after the administration of CRL 41 153, groups of 10 mice receive an intraperitoneal injection of barbital (220 mg/kg).
# mice [13] = test: Behavioral despair; assay type: in vivo, mouse; conditions: forcibly immersed mice, i.p.
# From the text: Half an hour after they have received CRL 41 153, groups of 6 mice are placed in a beaker filled with water to a height of 6 cm. The total period of immobility between the 2nd and 6th minutes following immersion is noted.
# [14] = system: gravid White New Zealand female rabbits; test: Teratogenicity in gravid White New Zealand rabbits; assay type: in vivo, rabbit; conditions: day 5 to day 18 of gestation; for Affected foetuses, %: normal limit 1.5%
# Procedure: The protocol used comprised administering to gravid White New Zealand female rabbits (weighing each about 2900-3000 grams before gestation) a daily dose of 0 (batch of control animals), 5,10 or 50 mg/kg of each product to be tested by gastrogavage from day 5 to day 18 of gestation, then carrying out a cesarean operation on day 29 of gestation in order to enumerate:
# (i) the total number of foestuses, and
# (ii) the total number of foestuses presenting at least one malformation.
# To appreciate the results of such a protocol it must be noted that natural malformations may occur. Statistically, the percentage of foetuses presenting at least one malformation in any control batch of gravid White New Zealand female rabbits is lower than or equal to 1.5% with respect to the total number of foetuses.
# To be precise in this protocol a malformation comprises at least one of the following cases: articular limb blocade, anorous foetus, deviated tail, shorter tail, skull deformation, exemcephalia.
# [15] = pH of solutions in distilled water; assay type: physicochemical
# Procedure: The neuropsychopharmacological study was undertaken according to the procedures described above for CRL 41 153, CRL 41 213 being adminstered intraperitoneally, in solution in distilled water, in a volume of 20 ml/kg to male mice and a volume of 5 ml/kg to male rats, and the pH of the injected solution varying with the concentration of CRL 41 213 according to the data given in Table II below.
# CNS = test: Neuropsychopharmacological profile as a whole; assay type: in vivo, mice and rats
# Procedure: as §1
# immunity = test: Immunological study (overall); conditions: in vivo
# [16] = Particular toxicity in grouped mice; conditions: mouse, in vivo, ip
# Procedure: The number of dead animals is noted after 1 hour, 2 hours, 3 hours, 4 hours and 24 hours.
SMILES,Overall behavior: observed effects (summary) (mice [1]),Stereotype movements (summary) (mice [1]),Overall behavior: observed effects (summary) (rats [2]),Stereotype movements (summary) (rats [2]),Effect on hypothermia induced by apomorphine (mice [3]),Effect on stereotypies induced by apomorphine (rats [4]),Effect on stereotypies induced by amphetamine (rats [5]),Effect on hypothermia induced by reserpine (mice [6]),Effect on ptosis induced by reserpine (mice [6]),Effect on hypothermic action of oxotremorine (mice [7]),Effect on convulsant effects of electric shock (mice [8]),Spontaneous motor activity (mice [9]),Motor activity of mice accustomed to their enclosure (mice [10]),Motor recovery of mice after hypobaric hypoxia (mice [11]),Duration of the sleep induced by barbital (mice [12]),Period of immobility due to despair (mice [13]),pH ([15]; 6 g/liter in distilled water),pH ([15]; 50 g/liter in distilled water),Antidepressant effects (overall) (CNS; conclusion of the tests),Stimulant effects (overall) (CNS; conclusion of the tests),other results
"CNC(C)C(=O)c1ccc(N)cc1 (stereo not shown) [CRL 41 218, 1-4-aminophenyl)-2-methylaminopropanone dihydrochloride]",excitation in mice and rats,presence of stereotype movements,excitation in mice and rats,presence of stereotype movements,antagonism of the hypothermia,potentiation of the stereotypies,potentiation of the stereotypies,antagonism of the hypothermia,antagonism of the ptosis induced by reserpine,antagonism of the hypothermia,"antagonism, at strong doses, of the convulsant effects of electric shock",increase in the motor activity,resumption in the motor activity of mice accustomed to their enclosure,improvement in the motor recovery,distinct antagonism of the sleep induced by barbital,a reduction in the period of immobility,5.0,4.0,antidepressant effects,stimulant effects,"Affected foetuses, number ([14]; 50 mg/kg daily): 1; Total foetuses (live) ([14]; 50 mg/kg daily): 79; Affected foetuses, % ([14]; 50 mg/kg daily): 1.26%; pH ([15]; 13 g/liter in distilled water): 4.5; pH ([15]; ≤3 g/liter in distilled water): 5.5; Anticonvulsant effects (overall) (CNS; conclusion of the tests): anticonvulsant effects; α-adrenergic stimulant effects (overall) (CNS; conclusion of the tests): α-adrenergic stimulant effects; Peripheral α-adrenergic signs (mydriasis, salivation, lacrimation, exophthalmos) (CNS; species and dose not stated, dihydrochloride): mydriasis; also recorded: salivation"
CC(C(=O)c1ccc(N)cc1)N1CCCCC1 (stereo not shown) [CRL 41 241],excitation with hyperactivity in mice and rats; also recorded: moderate mydriasis in mice and rats,the presence of stereotype movements in mice and rats,excitation with hyperactivity in mice and rats; also recorded: moderate mydriasis in mice and rats,the presence of stereotype movements in mice and rats,antagonism of the hypothermia,potentiation of the stereotypies,potentiation of the stereotypies,antagonism of the hypothermia,a decrease in the ptosis induced by reserpine,antagonism of the hypothermia,total antagonism of the convulsant effect of electric shock,an increase in the spontaneous motor activity of mice,resumption in the motor activity of mice accustomed to their enclosure,improvement in the motor recovery,a reduction in the duration of the sleep induced by barbital,a reduction in the Period of immobility,2.0,1.0,antidepressant-type effect,large stimulant component,"Effect on trembling induced by oxotremorine (mice [7]): a very distinct reduction in the intensity of the trembling due to oxotremorine; Number of punished passes in the four plate test (mice [8]): a moderate increase in the number of punished passes in the 4 plate test on mice (at high doses); Affected foetuses, number ([14]; 10 mg/kg daily): 0; Total foetuses (live) ([14]; 10 mg/kg daily): 88; Affected foetuses, % ([14]; 10 mg/kg daily): 0%; pH ([15]; 0.3 g/liter in distilled water): 5.0; pH ([15]; 0.5 g/liter in distilled water): 4.5; pH ([15]; 1 g/liter in distilled water): 3.5; pH ([15]; 2 g/liter in distilled water): 3.0; pH ([15]; 3 g/liter in distilled water): 2.5; pH ([15]; 26 g/liter in distilled water): 1.5; pH ([15]; ≤0.05 g/liter in distilled water): 5.5; α-adrenergic stimulant effects (overall) (CNS; conclusion of the tests): an α-adrenergic stimulation component"
CC(C(=O)c1ccc(N)cc1)N1CCSCC1 (stereo not shown) [CRL 41 248],–,–,–,–,–,–,–,–,–,–,–,–,–,–,–,–,–,1.5,–,–,"Affected foetuses, number ([14]; 10 mg/kg daily): 1; Total foetuses (live) ([14]; 10 mg/kg daily): 93; Affected foetuses, % ([14]; 10 mg/kg daily): 1.07%; pH ([15]; 0.05 g/liter in distilled water): 5.0; pH ([15]; 0.1 g/liter in distilled water): 4.5; pH ([15]; 0.2 g/liter in distilled water): 4.0; pH ([15]; 0.4 g/liter in distilled water): 3.5; pH ([15]; 1.2-0.8 g/liter in distilled water): 3.0; pH ([15]; 3.2 g/liter in distilled water): 2.5; pH ([15]; 6.4 g/liter in distilled water): 2.0; pH ([15]; ≤0.025 g/liter in distilled water): 5.5; Immunological effect (overall) (immunity): immunostimulant or immunomodulating effects"
"COC(=O)C(c1ccccc1)C1CCCCN1 (stereo not shown) [methylphenidate, reference compound]",–,–,–,–,–,–,–,–,–,–,–,–,–,–,–,–,–,–,–,–,selectivity ratio [16]: ~6
"CN1Cc2c(N)cccc2C(c2ccccc2)C1 (stereo not shown) [nomifensin, reference compound]",–,–,–,–,–,–,–,–,–,–,–,–,–,–,–,–,–,–,–,–,selectivity ratio [16]: ~4
